This passage reports TGI and GI50 results from PubChem BioAssay (NCI).

Among the test systems are U251 CNS; ACHN renal; NCI/ADR-RES ovarian; MDA-MB-231 breast; HOP-92 NSCLC; HCT-15 colon; CCRF-CEM leukemia; DU-145 prostate; NCI-H522 lung; SF-295 CNS.
Assay in all cases: DTP human tumour cell line panel, 48 h

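Assay format: 96-well plates, 48-hour exposure. Abbreviation: GI50, concentration required for 50% inhibition of growth. Definition used: TGI = concentration required for complete inhibition of growth.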

As to `Cc1noc(NC(=O)Nc2ccccc2F)c1C#N`, the TGI (usually the concentration giving total growth inhibition) in the assay on U251 CNS is over 44.6 µM; in the assay on ACHN renal, over 46.7 µM; in the assay on NCI/ADR-RES ovarian it was over 100 µM; in the assay with MDA-MB-231 breast it was over 33.5 µM; with HOP-92 NSCLC, over 100 µM; in the assay with HCT-15 colon, over 100 µM. For the same compound, the concentration for total growth inhibition (TGI) in the assay with CCRF-CEM leukemia is over 100 µM; in the assay with DU-145 prostate it was over 100 µM; in the assay with NCI-H522 lung, over 34.7 µM; in the assay on SF-295 CNS it was over 100 µM.

With `CNCc1ccc(-c2cc(-c3nc(-c4ccc(S(=O)(=O)C(C)C)cc4)cnc3N)on2)cc1`, the GI50 – broadly, the concentration at which growth is held to half of that of the control – was 4.93 µM with U251 CNS; 0.115 µM in the assay with ACHN renal; 3.08 µM in the assay with NCI/ADR-RES ovarian; 3.8 µM in the assay on MDA-MB-231 breast; 13.3 µM in the assay on HOP-92 NSCLC; 0.519 µM with HCT-15 colon. The concentration for 50% growth inhibition (GI50) with CCRF-CEM leukemia is 0.215 µM; in the assay with DU-145 prostate it was 0.798 µM; with NCI-H522 lung it was 14.7 µM; in the assay with SF-295 CNS it was 4.5 µM. For the same compound, the TGI with U251 CNS is 21.5 µM; in the assay with ACHN renal, 10.9 µM; in the assay on NCI/ADR-RES ovarian, over 74.4 µM; in the assay with MDA-MB-231 breast, 19.6 µM; in the assay with HOP-92 NSCLC it was 30.6 µM; with HCT-15 colon it was 2.3 µM. Moreover, the TGI in the assay with CCRF-CEM leukemia stood at 3.42 µM; in the assay with DU-145 prostate it was 5.91 µM; with NCI-H522 lung, 39.2 µM; in the assay with SF-295 CNS it was 22.9 µM.

Turning to `Fc1ccc(NC(c2ccc(F)cc2)C2CCN(CCCCc3ccccc3)CC2)cc1` (stereo not drawn), the GI50 with U251 CNS is 1.67 µM; with ACHN renal it was 1.68 µM; in the assay on NCI/ADR-RES ovarian, 1.7 µM; with MDA-MB-231 breast it was 1.58 µM; in the assay on HOP-92 NSCLC it was 1.31 µM; in the assay with HCT-15 colon, 1.45 µM. Also, the GI50 is 3.62 µM in the assay with CCRF-CEM leukemia, 1.77 µM in the assay on DU-145 prostate, 1.65 µM with NCI-H522 lung and 1.49 µM with SF-295 CNS. The TGI worked out at 3.06 µM in the assay with U251 CNS; 3.05 µM with ACHN renal; 3.45 µM in the assay on NCI/ADR-RES ovarian; 3.13 µM in the assay with MDA-MB-231 breast; 3.41 µM with HOP-92 NSCLC; 2.89 µM in the assay with HCT-15 colon. For the same compound, the TGI in the assay with CCRF-CEM leukemia came to 9.12 µM; in the assay on DU-145 prostate, 3.86 µM; in the assay on NCI-H522 lung, 3.47 µM; in the assay on SF-295 CNS, 2.86 µM.

Regarding `NC(N)=NCCCC(NCc1c2ccccc2nc2ccccc12)C(=O)O` (stereo not drawn), the TGI with U251 CNS is over 100 µM; in the assay with ACHN renal, over 100 µM; in the assay on NCI/ADR-RES ovarian, over 100 µM; in the assay with MDA-MB-231 breast, over 100 µM; with HOP-92 NSCLC, over 83.5 µM; in the assay on HCT-15 colon, over 100 µM. For the same compound, the concentration for total growth inhibition (TGI) is 75.1 µM in the assay with CCRF-CEM leukemia, over 100 µM in the assay on DU-145 prostate, 69.9 µM with NCI-H522 lung and over 100 µM in the assay on SF-295 CNS.

`CCCCCCCCCCCC[C@@H](O)[C@H]1CC[C@H]([C@H](O)CC[C@H](O)[C@@H]2CC[C@@H](CCCCCCCC3=C[C@H](C)OC3=O)O2)O1`: the GI50 in the assay on U251 CNS was 8.63 µM; in the assay with ACHN renal, 2.51 µM; in the assay with NCI/ADR-RES ovarian it was 2.12 µM; with HOP-92 NSCLC it was 3.08 µM; in the assay with HCT-15 colon it was 5.07 µM; in the assay on CCRF-CEM leukemia, 1.22 µM. Besides, the GI50 in the assay with DU-145 prostate was over 50 µM; in the assay with SF-295 CNS, 2.4 µM. The TGI in the assay with U251 CNS, with ACHN renal, with NCI/ADR-RES ovarian, with MDA-MB-231 breast, in the assay on HOP-92 NSCLC and in the assay with HCT-15 colon was over 50 µM each time. Besides, the TGI in the assay on CCRF-CEM leukemia, in the assay with DU-145 prostate, with NCI-H522 lung and with SF-295 CNS was over 50 µM throughout.

For the compound `N#CC(C#N)=C/C=C(\Sc1ccc(Cl)cc1)c1ccc(F)cc1`, the GI50 was 1.23 µM with U251 CNS; 1.52 µM in the assay with ACHN renal; 0.948 µM with NCI/ADR-RES ovarian; 1.84 µM in the assay with MDA-MB-231 breast; 0.501 µM in the assay on HOP-92 NSCLC; 1.49 µM in the assay with HCT-15 colon. Besides, the GI50 is 0.0177 µM in the assay with CCRF-CEM leukemia, 0.525 µM in the assay with DU-145 prostate, 2.8 µM with NCI-H522 lung and 2.74 µM with SF-295 CNS. Also, the TGI with U251 CNS was over 34.5 µM; in the assay on ACHN renal, over 27.7 µM; in the assay on NCI/ADR-RES ovarian it was 4.94 µM; in the assay with MDA-MB-231 breast it was 6.25 µM; in the assay on HOP-92 NSCLC it was 13.2 µM; in the assay with HCT-15 colon it was over 33.1 µM. The TGI with CCRF-CEM leukemia is over 100 µM; with DU-145 prostate, over 33.6 µM; with NCI-H522 lung, over 47.6 µM; in the assay on SF-295 CNS it was 9.94 µM.

As for `Cc1ccc(NC(=O)c2cc(S(=O)(=O)Nc3nnc(-c4ccccc4)c(-c4ccccc4)n3)c(SCc3ccccc3)cc2Cl)cc1`, the GI50 in the assay on U251 CNS is 13.7 µM; in the assay on ACHN renal it was 17 µM; with NCI/ADR-RES ovarian it was 20.4 µM; in the assay with MDA-MB-231 breast it was 19.4 µM; with HOP-92 NSCLC, 18.8 µM; with HCT-15 colon it was 17.5 µM. Besides, the GI50 was 49.5 µM in the assay with CCRF-CEM leukemia, 20 µM in the assay with DU-145 prostate, 42.4 µM in the assay on NCI-H522 lung and 19.4 µM in the assay with SF-295 CNS. For the same compound, the TGI with U251 CNS was determined as 28.7 µM; with ACHN renal, 31.3 µM; with NCI/ADR-RES ovarian, 41.2 µM; in the assay on MDA-MB-231 breast, 42.2 µM; with HOP-92 NSCLC it was 42.9 µM; in the assay on HCT-15 colon, 39.1 µM. The TGI with CCRF-CEM leukemia was over 100 µM; with DU-145 prostate it was 37.9 µM; with NCI-H522 lung it was over 100 µM; in the assay with SF-295 CNS it was 42.2 µM.
